According to ChEMBL document CHEMBL5537193, “Multitargeting HDAC Inhibitors Containing a RAS/RAF Protein Interfering Unit” (J Med Chem, 2024):
Active and inactive are the calls of the source. No cut-off for these calls is given here.

How the values were obtained:
[1] = tested on: PANC-1; assay: Effect on ERK1/2 protein expression in human PANC-1 cells at 2 uM incubated for 24 hrs by Western blot analysis; assay type: functional, cell-based
[2] = tested on: HepG2; assay: cells; details: Homo sapiens, HepG2, 72 h
Description: Cytotoxicity against human HepG2 cells assessed as inhibition of cell growth incubated for 72 hrs by MTT assay

[3] = Toxicity in BALB/c nude mouse xenografted with human HT-29 cells assessed as change in kidney histopathology at 10 to 15 mg/kg, ip administered once daily for 24 days by H&E staining based analysis; assay type: organism-based; details: in vivo, 576 h, dose 10-15 mg/kg, time 24 day

Q: Which results are given for `COc1cc(OC)c(/C=C/S(=O)(=O)Cc2ccc(OC)c(NCC(=O)NO)c2)c(OC)c1`?
A: Activity [1]: inactive; IC50 [2]: 0.99 µM; Activity [3]: Non-Toxic
